Twelve molecules from ChEMBL document CHEMBL1201862, “PubChem BioAssay data set” (2004) can be followed below.

Some test systems named below: HCT-15; TK-10; LOX IMVI; COLO 205; UACC-62; HT-29; OVCAR-3; CCRF-CEM; MDA-MB-231; HCT-116; SK-MEL-28; MOLT-4; SN12C; HCC 2998; 786-0; U-251; OVCAR-5; SF-268; Hs-578T.
Assay in all cases: growth of human tumour cells (NCI), 48 h

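The compound was tested at five concentrations on cells cultured in 96-well plates, with a 48-hour exposure period. GI50 is the concentration that inhibits growth by half.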 Activity calls are given as the source filed them. Cut-off read from the data, not from the text of the source: active = GI50 up to about 1.1 µM and inactive = higher. Some results are limits rather than exact numbers.

In the case of `COc1nc(C(Cl)(Cl)Cl)c(Cl)c(O)c1Cl`, the GI50 with HCT-15 is more than 100 µM; in the assay on TK-10 it was > 100 µM (inactive); in the assay with LOX IMVI it was > 100 µM (inactive); in the assay with COLO 205 it was > 100 µM (inactive); with UACC-62 it was > 100 µM (inactive); in the assay on HT-29, > 100 µM (inactive). Moreover, the GI50 with OVCAR-3, with CCRF-CEM, in the assay with MDA-MB-231, in the assay on HCT-116, with SK-MEL-28 and with MOLT-4 was > 100 µM (inactive) each time. In addition, the GI50 with SN12C, in the assay with HCC 2998, in the assay on 786-0, in the assay on U-251 and in the assay on OVCAR-5 was > 100 µM (inactive) each time.
For `S=C(Nc1ccccn1)Nc1ccccc1Cl`, the GI50 in the assay on HCT-15 was 59.8 µM; in the assay with TK-10 it was > 68.7 µM (inactive); with SF-268 it was > 43.8 µM (inactive); in the assay with LOX IMVI it was > 100 µM (inactive); with COLO 205, > 100 µM (inactive); with UACC-62, > 52.4 µM (inactive). The GI50 in the assay with HT-29 is > 61.1 µM (inactive); with OVCAR-3, > 67.1 µM (inactive); in the assay with CCRF-CEM it was > 100 µM (inactive); in the assay on MDA-MB-231 it was 61.9 µM (inactive); in the assay with HCT-116, > 71.9 µM (inactive); with SK-MEL-28, > 100 µM (inactive). Also, the GI50 in the assay on MOLT-4 is > 100 µM (inactive); in the assay on SN12C it was > 100 µM (inactive); with HCC 2998 it was > 100 µM (inactive); in the assay with 786-0, > 67.5 µM (inactive); in the assay with U-251, 48.6 µM (inactive); in the assay on OVCAR-5, > 50.2 µM (inactive).
In the case of `O=c1c(/C=C/c2c(O)ccc3ccccc23)nnc2sc(-c3cccc([N+](=O)[O-])c3)nn12`, the GI50 in the assay on HCT-15 was 4.43 µM; with TK-10, 9.29 µM (inactive); in the assay on SF-268, 8.93 µM (inactive); in the assay on LOX IMVI it was 6.56 µM (inactive); in the assay with COLO 205, 26.5 µM (inactive); with UACC-62 it was 11.4 µM (inactive). In addition, the GI50 is 36.4 µM (inactive) in the assay on HT-29; 12.5 µM (inactive) in the assay with Hs-578T; 2.73 µM (inactive) in the assay with OVCAR-3; 7.33 µM (inactive) with MDA-MB-231; 4.98 µM (inactive) with HCT-116; > 100 µM (inactive) in the assay with SK-MEL-28. The GI50 was 3.94 µM (inactive) in the assay on MOLT-4; 9.33 µM (inactive) in the assay with SN12C; 7.13 µM (inactive) in the assay with 786-0; 7.6 µM (inactive) with U-251; 33 µM (inactive) in the assay on OVCAR-5.
As for `COC(CNC(=O)C(C)NC(=O)CCc1ccccc1)OC` (centres undefined), the GI50 is more than 100 µM in the assay with HCT-15; > 100 µM (inactive) in the assay on TK-10; > 100 µM (inactive) in the assay with SF-268; > 100 µM (inactive) in the assay on COLO 205; > 100 µM (inactive) in the assay with UACC-62; > 100 µM (inactive) in the assay with HT-29. The GI50 in the assay with Hs-578T, in the assay on CCRF-CEM, in the assay with MDA-MB-231, with HCT-116, with SK-MEL-28 and in the assay with MOLT-4 was > 100 µM (inactive) throughout. The GI50 with SN12C, in the assay with 786-0, with U-251 and in the assay on OVCAR-5 was > 100 µM (inactive) each time.
`COCN1C(=O)[C@@H]2CCCN2C(=O)c2cc(N)ccc21`: the GI50 with HCT-15 was more than 100 µM; in the assay on TK-10, > 100 µM (inactive); with SF-268, > 100 µM (inactive); in the assay on LOX IMVI, > 100 µM (inactive); in the assay with COLO 205, < 0.01 µM (active); in the assay with UACC-62, > 100 µM (inactive). The GI50 in the assay with HT-29, with Hs-578T, in the assay on MDA-MB-231, in the assay on HCT-116, in the assay on SK-MEL-28 and in the assay on SN12C was > 100 µM (inactive) throughout. Besides, the GI50 in the assay with 786-0, with U-251 and in the assay on OVCAR-5 was > 100 µM (inactive) each time.
Take `CC(=O)NC(CSC1=C2NC(=O)\C=C/C=C\C=C/C(C)C(O)CC(=O)/C(C)=C\CC(O)/C=C\C(C)C(O)C(C)C=C(C)C(=O)c3c(O)c(C)cc(c3C1=O)C2=O)C(=O)O` (centres undefined): the GI50 was more than 100 µM in the assay with HCT-15; > 100 µM (inactive) with TK-10; 69.2 µM (inactive) in the assay on LOX IMVI; 21.7 µM (inactive) in the assay with COLO 205; 51.5 µM (inactive) in the assay with UACC-62; 47.2 µM (inactive) in the assay with HT-29. In addition, the GI50 in the assay with Hs-578T was 27.5 µM (inactive); with OVCAR-3, 96.6 µM (inactive); in the assay with CCRF-CEM, 22.3 µM (inactive); with MDA-MB-231, 24.6 µM (inactive); with HCT-116 it was 36.4 µM (inactive); in the assay with SK-MEL-28, 30.3 µM (inactive). The GI50 in the assay with MOLT-4 was 28.6 µM (inactive); with SN12C it was 79.1 µM (inactive); with 786-0, 89.7 µM (inactive); in the assay with U-251 it was 43.2 µM (inactive); with OVCAR-5, > 100 µM (inactive).
As for `CCOC(=O)c1cnc2[nH]ccn2c1=O`, the GI50 with HCT-15 was more than 10 µM; with TK-10 it was > 10 µM (inactive); in the assay with SF-268, > 10 µM (inactive); in the assay on LOX IMVI, > 10 µM (inactive); in the assay with COLO 205 it was > 10 µM (inactive); with UACC-62, > 10 µM (inactive). Further, the GI50 in the assay on HT-29, with Hs-578T, in the assay with OVCAR-3, with CCRF-CEM, in the assay on MDA-MB-231 and in the assay on HCT-116 was > 10 µM (inactive) in each case. In addition, the GI50 with SK-MEL-28, with MOLT-4, in the assay with SN12C, with 786-0, with U-251 and in the assay with OVCAR-5 was > 10 µM (inactive) in each case.
With `O=C1CC(c2cccc([N+](=O)[O-])c2)C2(C(=O)NC(=O)NC2=O)C(c2cccc([N+](=O)[O-])c2)C1` (centres undefined), the GI50 in the assay on HCT-15 is 70.5 µM; with SF-268 it was 19.7 µM (inactive); with LOX IMVI, 36.8 µM (inactive); in the assay on COLO 205 it was > 100 µM (inactive); with UACC-62, 98.4 µM (inactive); in the assay with HT-29, 75.9 µM (inactive). Also, the GI50 was > 100 µM (inactive) in the assay on Hs-578T; 13.9 µM (inactive) in the assay on OVCAR-3; 32.9 µM (inactive) with CCRF-CEM; > 100 µM (inactive) with MDA-MB-231; 20.1 µM (inactive) in the assay with HCT-116; > 100 µM (inactive) with SK-MEL-28. Besides, the GI50 with MOLT-4, with SN12C, in the assay with 786-0, with U-251 and in the assay on OVCAR-5 was > 100 µM (inactive) each time.
Consider `O=C[C@]12CC=C3OC4OC5(CCCCC5)OC4[C@H]3[C@H]1C(=O)C=CC2=O` (some centres undefined), for which the GI50 in the assay on HCT-15 is 18.7 µM; in the assay with TK-10 it was 35.1 µM (inactive); in the assay on SF-268 it was 8.71 µM (inactive); in the assay with UACC-62 it was 21.5 µM (inactive); in the assay with HT-29 it was 40.2 µM (inactive); with CCRF-CEM, 2.44 µM (inactive). Besides, the GI50 in the assay with HCT-116 was 19.9 µM (inactive); in the assay on SK-MEL-28 it was 26.7 µM (inactive); with MOLT-4, 2.85 µM (inactive); with SN12C, 52.8 µM (inactive); in the assay on HCC 2998, 32.7 µM (inactive); in the assay on 786-0, 9.84 µM (inactive). The GI50 in the assay on U-251 is 22.7 µM (inactive); in the assay with OVCAR-5 it was 53.3 µM (inactive).
As to `COc1ccc(/C=C2\SC(c3ccc(OC)cc3)N(NC(=O)Cc3ccccc3)C2=O)cc1` (centres undefined), the GI50 in the assay with HCT-15 was more than 100 µM; in the assay on TK-10, > 100 µM (inactive); in the assay with SF-268, > 100 µM (inactive); in the assay with LOX IMVI, > 100 µM (inactive); in the assay on COLO 205, > 100 µM (inactive); in the assay with UACC-62 it was > 100 µM (inactive). Also, the GI50 with HT-29 is > 100 µM (inactive); with CCRF-CEM, > 100 µM (inactive); in the assay with HCT-116, > 100 µM (inactive); with SK-MEL-28 it was > 100 µM (inactive); with MOLT-4 it was 79.3 µM (inactive); with SN12C it was > 100 µM (inactive). Moreover, the GI50 in the assay on 786-0, in the assay with U-251 and in the assay with OVCAR-5 was > 100 µM (inactive) throughout.
Take `N#CCCC1(CCC#N)CCc2ccccc2C1=O`: the GI50 in the assay on HCT-15 was more than 100 µM; with TK-10, > 100 µM (inactive); in the assay on SF-268, > 100 µM (inactive); in the assay with LOX IMVI, > 100 µM (inactive); in the assay with UACC-62 it was > 100 µM (inactive); in the assay on HT-29, > 100 µM (inactive). The GI50 in the assay on OVCAR-3, in the assay with CCRF-CEM, in the assay on MDA-MB-231, in the assay on HCT-116, in the assay with SK-MEL-28 and with MOLT-4 was > 100 µM (inactive) in each case. The GI50 in the assay on SN12C, in the assay on HCC 2998, with 786-0, in the assay with U-251 and with OVCAR-5 was > 100 µM (inactive) throughout.
For `O=C(O)COc1cc(-c2ccccc2F)nc2cc3c(cc12)OCO3`, the GI50 in the assay on HCT-15 is more than 100 µM; with TK-10 it was > 100 µM (inactive); in the assay with SF-268, > 100 µM (inactive); in the assay with LOX IMVI it was > 100 µM (inactive); in the assay on COLO 205 it was > 100 µM (inactive); in the assay on UACC-62, > 100 µM (inactive). In addition, the GI50 with HT-29, in the assay on OVCAR-3, with CCRF-CEM, in the assay on MDA-MB-231, with HCT-116 and in the assay on SK-MEL-28 was > 100 µM (inactive) in each case. Moreover, the GI50 in the assay with MOLT-4, with SN12C, in the assay with HCC 2998, in the assay with 786-0, with U-251 and with OVCAR-5 was > 100 µM (inactive) each time.
